“Also recorded” adds a separate entry of the source.
Legend:
Type in all cases: in vivo, mouse
[1] = tested on: small intestinal circular muscle; assay: in vitro circular muscle contractility (spontaneous and bethanechol-stimulated) after IM
Description: Surgical Manipulation. Mice were anesthetized with inhaled isoflurane and the abdomen opened by midline laparotomy. The small intestine was eventrated and gently compressed along its entire length using moistened sterile cotton applicators. This procedure is designed to simulate “running” of the bowel commonly performed during abdominal surgery in the clinical setting. The bowel was repositioned in the abdominal cavity and the incision closed by two layers of continuous sutures. The duration of the procedure was approximately 15 minutes and the animals moved freely about their cage within 20 minutes of withdrawal of anesthetic.
CO Inhalation Treatment. Mice housed in cages were placed in plexiglass chambers that were continuously ventilated with air or with air containing CO (250 ppm). A sampling port was provided to continuously monitor carbon monoxide concentrations within the chamber. Animals had free access to food and water at all times. Mice were exposed to CO or air 1 hour prior to laparotomy, removed for surgical manipulation, and then returned to the chamber for 24 hours. Mice not undergoing surgery were removed from the chamber for a similar length of time and then returned to the chamber for 24 hours.
Mice were anesthetized and killed by exsanguination at the end of the 24-hour chamber treatment with CO or room air. In vitro circular muscle mechanical activity was measured as previously described in Eskandari et al. (Am. J. Physiol. 273:G727-G734 (1997)). Briefly, a segment of mid small bowel was pinned in a Sylgard™ (Midland, Mich.) lined dissecting dish containing pre-oxygenated Krebs-Ringer-bicarbonate buffer (KRB; in mM: 137.4 Na^+, 5.9 K^+, 2.5 Ca^2+, 1.2 Mg^2+, 134 Cl^−, 15.5 HCO3^−, 1.2 H2PO4−, and 11.5 glucose), gassed with 97% O2/3% CO2 to establish a pH of 7.4. The intestine was opened along the mesenteric border, and the mucosa removed by stripping with fine forceps. Full-thickness strips of muscularis (1×6 mm) cut parallel to the circular muscle layer were mounted in standard horizontal mechanical organ chambers and were continuously superfused with preoxygenated KRB maintained at 37° C. One end of each strip was attached by ligature to a fixed post and the other to an isometric force transducer (WPI, Sarasota, Fla.). Strips were allowed to equilibrate for 1 hour, after which they were incrementally stretched to Lo (length at which maximal spontaneous contraction occurs). After a baseline recording period of 30 min, contractility-response curves were generated by exposing the tissues to increasing concentrations of the muscarinic agonist bethanechol (0.3 to 300 μM) for 10 minutes, followed by intervening 10-minute wash periods. Contractile activity was calculated by integrating the area under the trace. The response was normalized to the amount of tissue by converting the weight (1.03 mg/mm^2) and length of the strip to square millimeters of tissue, and reported as g/s/mm^2. Intestinal transit was measured in controls and manipulated animals 24 hours postoperatively by evaluating the intestinal distribution of a non-absorbable fluorescein-labeled dextran (MW 70,000). Animals were lightly sedated with isofluran and fed orally with labeled dextran (100 μl of 25 mg/ml stock solution). Ninety minutes after administration, the animal was sacrificed and the entire bowel from stomach to distal colon was collected. The contents of the stomach, small bowel (divided into 10 segments of equal length), the cecum, and colon (3 segments of equal length) were each minced in 1 ml of saline and mixed vigorously to release the dextran present in each segment. After pelleting the intestinal tissue and chyme, aliquots of the cleared supernatant were read in duplicate on a plate reader (CytoFluor II; excitation wavelength 530 nm and emission 590 nm) for quantification of the fluorescent signal in each bowel segment. […]

[2] = tested on: IL-6 protein; assay: IL-6 protein release from isolated muscularis (ELISA)
Procedure: Protein and Nitric Oxide Determinations. The small bowel of control and mice subjected to intestinal manipulation was removed under sterile conditions, 4 or 24 hours post-operatively, leaving the colon in situ. The small intestine was transferred to a beaker containing chilled Hanks balanced salt solution (Sigma, St. Louis, Mo.) with 200 U/ml penicillin G and 200 μg/ml streptomycin (HBSS), the lumen flushed, and the tissue transferred to a second beaker of HBSS. The muscularis was harvested as described above for real time RT-PCR. Tissues were maintained under sterile conditions at 3 to 5° C. throughout the harvesting procedure. Isolated muscularis was blotted onto sterile gauze, and the wet weight determined to obtain aliquots of 40 to 60 mg. […]
After the incubation period, the muscle tissue was pelleted, and aliquots of culture medium were frozen in liquid nitrogen and stored at −80° C. The levels of IL-6, IL-1β, PGE2, and IL-10 proteins secreted into the culture medium were determined using commercially available ELISA kits (R&D Systems, Minneapolis, Minn.) according to the manufacturer's instructions. […] Nitrate/nitrate levels were measured 24 hrs postoperatively using commercially available test kit (Oxford Biomedical Research, Oxford, Mich.) and quantified according to the manufacturer's directions. […]

[3] = tested on: HO-1 mRNA; assay: Example 3 HO-1 mRNA by SYBR green real time RT-PCR; conditions: IM-CO mice
Procedure: Ileus was induced in mice by gentle manipulation of the small intestine. An incision was made to expose the abdominal cavity of the mouse, and bowel manipulation was performed by gentle poking and prodding of the small intestine (see, e.g., Schwarz et al., Gastroenterology 121(6):1354-1357 (2001)). […] Mice were exposed to CO by inhalation (250 and 500 ppm) for 1 hour immediately prior to intestinal manipulation and during the entire 24-hour recovery period. Intestinal contractility was assessed in vitro by measuring circular muscle strip contractions in response to bethanechol (0.3-300 μM) and in vivo by determining intestinal transit from the distribution of orally-fed, fluorescein-labeled dextran and calculating geometric center as described in Example 1 above. HO-1 and IL-10 mRNA expression were determined by SYBR green real time RT-PCR from extracts of muscularis extemae, as described in Example 1 above. Release of nitric oxide (NO), a potent inhibitor of smooth muscle contractility, was estimated by measuring serum total nitrite, also described in Example 1 above.

In the case of [C-]#[O+] [CO, carbon monoxide], the bethanechol-induced contractile activity ([1]; IM + CO) was “restored contractile activity to control levels”, the peak contractile force ([1]; IM + CO 250 ppm, 100 μM bethanechol) was 3.6±0.7 g/s/mm^2 and the “spontaneous contractile activity (rythmicity)” value ([1]; IM mice treated with CO) was “significantly improved; also recorded: restored”. The bethanechol-induced contractile activity ([1]; control animals + CO) was “no effect”, the spontaneous contractility ([1]; control mice + CO 24 hr) was “no effect” and the peak contractile force ([1]; control mice, CO alone, bethanechol) was 3.2±0.5 g/s/mm^2. The IL-6 protein release ([2]; IM + CO vs IM, 24 hr after surgery) was “significantly attenuated”, the IL-6 protein release ([2]; IM mice treated with CO, 24 hr postoperatively) was 2000 pg/mL and the “HO-1 expression versus controls” value [3] was 150 fold. For the same molecule, the “HO-1 increase in expression over IM alone” value ([3]; early induction) was 300%.

— patent publication US7687079B2, “Methods of treating ileus” (priority 2002, dated 2010)
